Experiments:
human DGKα = biological target: T1, human DGKα (Homo sapiens, UniProt P23743); test: DGKα Biochemical Activity Assay (ADP-Glo);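 further: recombinant enzyme converting diacylglycerol in lipid micelles with ATP, ADP formed detected by luminescence, IC50 from a four-parameter nonlinear fit, geometric mean across experiments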
T1 construct: purchased Carna Biosciences'; inferred from the same paragraph's 'obtained from Carna Biosciences')

[1] = test system: Jurkat NFκB-luciferase cells; test: Jurkat NFκB-Luciferase Assay; format: cell-based; details: Homo sapiens; Jurkat NFκB-luciferase cells activated with anti-CD3 antibody (OKT3), 2.5 hrs at 37° C., One-Glo Ex; geometric mean; read-out: DGK NFKb Luciferase EC50;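 further: bioluminescence read-out normalized to DMSO basal activation and to maximum enhancement at 1 µM compound, rising signal indicating stronger T-cell activation through DGKα inhibition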
Protocol: The activity of compounds was tested in a cell based NFκB reporter assay. Jurkat cells that are stably expressing a luciferase reporter construct under the transcriptional control of a NFκB reporter element were activated with an anti-CD3 antibody and luciferase levels were measured with a bioluminescence readout.
The day after, the excess antibody was washed out five times with 100 ul/well of assay medium (RPMI supplemented with 10% fetal bovine serum) using a Biotek EL406 instrument and leaving 20 µl of residual volume in each well. Jurkat NFκB-luciferase cells (Promega #) were harvested and diluted to 1 million cells/ml in assay medium. Sixty nanoliters of test compound dissolved in DMSO at various concentrations were dispensed into 384-well v-bottom polypropylene plates (Greiner) using a Labcyte Echo instrument. Thirty microliters of medium containing the Jurkat NFκB-luciferase cells were then dispensed using a Biotek MicroFlo instrument in each well of the compound-containing plate. The medium/cell/compound mixture was mixed with a Bravo instrument and 20 ul/well of the mixture was transferred to the anti-CD3-coated plate. The assay mixture was then incubated for 2.5 hrs at 37° C. followed by equilibration at 25° C. for 30 min. Forty microliters of One-Glo Ex (Promega) was then added to the assay mixture and luciferase activity was read on a Envision plate reader 7 minutes later.
Bioluminescence data were normalized based on maximum enhancement (1 micromolar of compound) and on basal activation (DMSO) controls. Least squares curve fittings were performed using a four-parameter variable slope nonlinear regression model. […] EC50 values from multiple experiments were averaged by geometric mean and the standard deviation was calculated.

T1 sequence (P23743 whole entry): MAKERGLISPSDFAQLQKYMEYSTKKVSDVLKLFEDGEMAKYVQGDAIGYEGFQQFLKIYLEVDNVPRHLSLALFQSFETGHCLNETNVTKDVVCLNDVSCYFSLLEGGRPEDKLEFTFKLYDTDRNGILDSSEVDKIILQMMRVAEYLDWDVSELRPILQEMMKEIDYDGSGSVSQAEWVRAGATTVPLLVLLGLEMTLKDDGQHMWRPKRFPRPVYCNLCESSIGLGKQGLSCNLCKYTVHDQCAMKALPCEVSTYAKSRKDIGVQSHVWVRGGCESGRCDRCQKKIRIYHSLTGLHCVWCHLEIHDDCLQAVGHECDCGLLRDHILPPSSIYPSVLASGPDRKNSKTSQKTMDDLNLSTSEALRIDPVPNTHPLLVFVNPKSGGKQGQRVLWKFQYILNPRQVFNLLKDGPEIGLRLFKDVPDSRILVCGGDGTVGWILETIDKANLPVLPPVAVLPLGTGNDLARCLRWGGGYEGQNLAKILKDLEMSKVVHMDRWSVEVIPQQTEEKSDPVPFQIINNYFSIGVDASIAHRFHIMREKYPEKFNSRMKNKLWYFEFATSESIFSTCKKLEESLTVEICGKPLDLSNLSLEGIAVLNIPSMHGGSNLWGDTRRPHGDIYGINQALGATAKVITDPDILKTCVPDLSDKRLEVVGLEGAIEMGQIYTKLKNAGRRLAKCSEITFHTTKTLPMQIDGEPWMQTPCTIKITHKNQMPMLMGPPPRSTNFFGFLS

Row | SMILES | IC50 (human DGKα) | EC50 [1]
1 | CC(C)(C#Cc1cccc2c1COCCN2c1nc(=O)[nH]c2cccc(F)c12)NC(=O)C1(C(F)(F)F)CC1 [Example 158, N-(4-(1-(5-fluoro-2-oxo-1,2-dihydroquinazolin-4-yl)-1,2,3,5-tetrahydrobenzo[e][1,4]oxazepin-6-yl)-2-methylbut-3-yn-2-yl)-1-(trifluoromethyl)cyclopropane-1-carboxamide] | 9.31 nM | 11 nM
2 | [2H]C([2H])([2H])n1c(=O)nc(N2CCCc3c(C#CC4(C)CC4)cncc32)c2c(F)c(F)ccc21 [Example 159, 5,6-difluoro-1-(methyl-d3)-4-(5-((1-methylcyclopropyl)ethynyl)-3,4-dihydro-1,7-naphthyridin-1(2H)-yl)quinazolin-2(1H)-one] | 2.03 nM | 0.685 nM
3 | [2H]C([2H])([2H])n1c(=O)nc(N2CCCc3c(C#CC4(C(F)(F)F)CC4)cncc32)c2c(F)c(F)ccc21 [Example 160, 5,6-difluoro-1-(methyl-d3)-4-(5-((1-(trifluoromethyl)cyclopropyl)ethynyl)-3,4-dihydro-1,7-naphthyridin-1(2H)-yl)quinazolin-2(1H)-one] | 5.36 nM | 0.936 nM
4 | [2H]C([2H])([2H])n1c(=O)nc(N2CCCc3c(C#CC4CCCN4C)cccc32)c2c(F)cccc21 (stereo not shown) [Example 161, 5-fluoro-4-[5-[2-(1-methylpyrrolidin-2-yl)ethynyl]-3,4-dihydro-2H-quinolin-1-yl]-1-(trideuteriomethyl)quinazolin-2-one] | 16.7 nM | 2.8 nM
5 | [2H]C([2H])([2H])n1c(=O)nc(N2CCCc3c(C#CC4CCCN4CC(F)F)cccc32)c2c(F)cccc21 (stereo not shown) [Example 162, 4-[5-[2-[1-(2,2-difluoroethyl)pyrrolidin-2-yl]ethynyl]-3,4-dihydro-2H-quinolin-1-yl]-5-fluoro-1-(trideuteriomethyl)quinazolin-2-one] | 9.27 nM | 1.26 nM
6 | O=c1nc(N2CCCCc3c(Br)cncc32)c2cc(F)ccc2[nH]1 [Example 163, 4-(6-bromo-2,3,4,5-tetrahydro-1H-pyrido[3,4-b]azepin-1-yl)-6-fluoroquinazolin-2(1H)-one] | 48.7 nM | 8.9 nM
7 | CC1(C#Cc2cncc3c2CCCCN3c2nc(=O)[nH]c3ccc(F)cc23)CC1 [Example 164, 6-fluoro-4-(6-((1-methylcyclopropyl)ethynyl)-2,3,4,5-tetrahydro-1H-pyrido[3,4-b]azepin-1-yl)quinazolin-2(1H)-one] | 5.58 nM | 0.693 nM
8 | O=c1nc(N2CCCCc3c(C#CC4(C(F)(F)F)CC4)cncc32)c2cc(F)ccc2[nH]1 [Example 165, 6-fluoro-4-(6-((1-(trifluoromethyl)cyclopropyl)ethynyl)-2,3,4,5-tetrahydro-1H-pyrido[3,4-b]azepin-1-yl)quinazolin-2(1H)-one] | 12.2 nM | 0.635 nM
9 | [2H]C([2H])([2H])n1c(=O)nc(N2CCCc3c(C#CC4CCN(C)C4)cccc32)c2c(F)cccc21 (stereo not shown) [Example 166, 5-fluoro-4-[5-[2-(1-methylpyrrolidin-3-yl)ethynyl]-3,4-dihydro-2H-quinolin-1-yl]-1-(trideuteriomethyl)quinazolin-2-one] | 71.5 nM | 6.71 nM
10 | [2H]C([2H])([2H])n1c(=O)nc(N2CCOCc3c(C#CC4CCCN4C)cccc32)c2c(F)cccc21 (stereo not shown) [Example 167, 5-fluoro-4-[6-[2-(1-methylpyrrolidin-2-yl)ethynyl]-3,5-dihydro-2H-4,1-benzoxazepin-1-yl]-1-(trideuteriomethyl)quinazolin-2-one] | 18.5 nM | 11 nM
11 | [2H]C([2H])([2H])n1c(=O)nc(N2CCOCc3c(C#CC4CCCN4CC(F)F)cccc32)c2c(F)cccc21 (stereo not shown) [Example 168, 4-[6-[2-[1-(2,2-difluoroethyl)pyrrolidin-2-yl]ethynyl]-3,5-dihydro-2H-4,1-benzoxazepin-1-yl]-5-fluoro-1-(trideuteriomethyl)quinazolin-2-one] | 5.33 nM | 1.55 nM
12 | [2H]C([2H])([2H])n1c(=O)nc(N2CCOCc3c(C#CC4CCCN4C(=O)C4CC4)cccc32)c2c(F)cccc21 (stereo not shown) [Example 169, 4-[6-[2-[1-(cyclopropanecarbonyl)pyrrolidin-2-yl]ethynyl]-3,5-dihydro-2H-4,1-benzoxazepin-1-yl]-5-fluoro-1-(trideuteriomethyl)quinazolin-2-one] | 9.06 nM | 12.8 nM
13 | [2H]C([2H])([2H])n1c(=O)nc(N2CCOCc3c(C#CC4(C(F)(F)F)CCN(C)C4)cccc32)c2c(F)cccc21 (stereo not shown) [Example 170, 5-fluoro-4-[6-[2-[1-methyl-3-(trifluoromethyl)pyrrolidin-3-yl]ethynyl]-3,5-dihydro-2H-4,1-benzoxazepin-1-yl]-1-(trideuteriomethyl)quinazolin-2-one] | 25.7 nM | 3.75 nM
14 | [2H]C([2H])([2H])n1c(=O)nc(N2CCOCc3c(C#CC4(C(F)(F)F)CCN(C5COC5)C4)cccc32)c2c(F)cccc21 (stereo not shown) [Example 171, 5-fluoro-4-[6-[2-[1-(oxetan-3-yl)-3-(trifluoromethyl)pyrrolidin-3-yl]ethynyl]-3,5-dihydro-2H-4,1-benzoxazepin-1-yl]-1-(trideuteriomethyl)quinazolin-2-one] | 11.4 nM | 4.99 nM
15 | [2H]C([2H])([2H])n1c(=O)nc(N2CCOCc3c(C#CC4(C(F)(F)F)CCN(CC(F)F)C4)cccc32)c2c(F)cccc21 (stereo not shown) [Example 172, 4-[6-[2-[1-(2,2-difluoroethyl)-3-(trifluoromethyl)pyrrolidin-3-yl]ethynyl]-3,5-dihydro-2H-4,1-benzoxazepin-1-yl]-5-fluoro-1-(trideuteriomethyl)quinazolin-2-one] | 8.07 nM | 1.4 nM
16 | [2H]C([2H])([2H])n1c(=O)nc(N2CCOCc3c(C#CC45CC(CN4CC(F)F)C5)cccc32)c2c(F)cccc21 [Example 173, 4-[6-[2-[2-(2,2-difluoroethyl)-2-azabicyclo[2.1.1]hexan-1-yl]ethynyl]-3,5-dihydro-2H-4,1-benzoxazepin-1-yl]-5-fluoro-1-(trideuteriomethyl)quinazolin-2-one] | 0.731 nM | 0.401 nM
17 | [2H]C([2H])([2H])n1c(=O)nc(N2CCOCc3c(C#CC45CC(CN4C)C5)cccc32)c2c(F)cccc21 [Example 174, 5-fluoro-4-[6-[2-(2-methyl-2-azabicyclo[2.1.1]hexan-1-yl)ethynyl]-3,5-dihydro-2H-4,1-benzoxazepin-1-yl]-1-(trideuteriomethyl)quinazolin-2-one] | 66.4 nM | 32.9 nM
18 | [2H]C([2H])([2H])n1c(=O)nc(N2CCOCc3c(C#CC(C)(C)N)cccc32)c2c(F)cccc21 [Example 175, 4-(6-(3-amino-3-methylbut-1-yn-1-yl)-2,3-dihydrobenzo[e][1,4]oxazepin-1(5H)-yl)-5-fluoro-1-(methyl-d3)quinazolin-2(1H)-one] | 122 nM | 21.3 nM
19 | [2H]C([2H])([2H])n1c(=O)nc(N2CCOCc3c(C#CC(C)(C)NC(=O)C4(C(F)(F)F)CC4)cccc32)c2c(F)cccc21 [Example 176, N-(4-(1-(5-fluoro-1-(methyl-d3)-2-oxo-1,2-dihydroquinazolin-4-yl)-1,2,3,5-tetrahydrobenzo[e][1,4]oxazepin-6-yl)-2-methylbut-3-yn-2-yl)-1-(trifluoromethyl)cyclopropane-1-carboxamide] | 2.4 nM | 5.36 nM
20 | [2H]C([2H])([2H])n1c(=O)nc(N2CCOCc3c(C#Cc4coc(C)n4)cccc32)c2c(F)cccc21 [Example 177, 5-fluoro-1-(methyl-d3)-4-(6-((2-methyloxazol-4-yl)ethynyl)-2,3-dihydrobenzo[e][1,4]oxazepin-1(5H)-yl)quinazolin-2(1H)-one] | 17.5 nM | 18.8 nM
21 | [2H]C([2H])([2H])n1c(=O)nc(N2CCOCc3c(C#CC(C)(C)NC(=O)C4(C(F)F)CC4)cccc32)c2c(F)cccc21 [Example 178, 1-(difluoromethyl)-N-(4-(1-(5-fluoro-1-(methyl-d3)-2-oxo-1,2-dihydroquinazolin-4-yl)-1,2,3,5-tetrahydrobenzo[e][1,4]oxazepin-6-yl)-2-methylbut-3-yn-2-yl)cyclopropane-1-carboxamide] | 6.36 nM | 9.33 nM
22 | [2H]C([2H])([2H])n1c(=O)nc(N2CCOCc3c(C#CC(C)(C)NC(=O)C(C)(C)C(F)F)cccc32)c2c(F)cccc21 [Example 179, 3,3-difluoro-N-(4-(1-(5-fluoro-1-(methyl-d3)-2-oxo-1,2-dihydroquinazolin-4-yl)-1,2,3,5-tetrahydrobenzo[e][1,4]oxazepin-6-yl)-2-methylbut-3-yn-2-yl)-2,2-dimethylpropanamide] | 3.48 nM | 15.1 nM
23 | [2H]C([2H])([2H])n1c(=O)nc(N2CCOCc3c(C#CC(C)(C)NC(=O)C4(C(C)(F)F)CC4)cccc32)c2c(F)cccc21 [Example 180, 1-(1,1-difluoroethyl)-N-(4-(1-(5-fluoro-1-(methyl-d3)-2-oxo-1,2-dihydroquinazolin-4-yl)-1,2,3,5-tetrahydrobenzo[e][1,4]oxazepin-6-yl)-2-methylbut-3-yn-2-yl)cyclopropane-1-carboxamide] | 4.63 nM | 7.56 nM
